# Experiments:
# human platelets = experiment: Response of human platelets stimulated by collagen; format: cell-based; details: collagen 0.19 mg/ml; substance 0.6 mM
# Method: Platelet rich plasma was prepared by centrifugation using known methods.
# Measurements were performed using an aggregometer marketed under the name “Chrono-log”. The measurements were processed and digitized using an “MP30 Biopac” data acquisition system.
# We studied the response of human platelets stimulated by collagen (0.19 mg/ml, Biodata). Two parameters were measured: the latency time (elapsed time between bringing the platelets into contact with collagen and the beginning of aggregation) and the maximum amplitude of aggregation.
# rat platelets = experiment: Aggregation of rat platelets (platelet rich plasma) stimulated by ADP, aggregometer; format: cell-based; details: for aggregation: without AMP 80%
# Method: Blood was collected on a citrate buffer from rats that had not received any treatment or from humans who had not received any treatment during the two weeks preceding collection of the blood sample. Platelet rich plasma was prepared by centrifugation using known methods. Measurements were performed using an aggregometer marketed under the name “Chrono-log”. The measurements were processed and digitized using an “MP30 Biopac” data acquisition system.
# male mice = experiment: Anti-inflammatory effect: carrageenan-induced inflammation in air pocket, leukocyte count in exudate; format: in vivo; details: for Number of leukocytes: 100 mg/kg/day by gastric gavage on days 3, 4, 5, exudate 4 hours after carrageenan, controls 9.57 ± 0.48; for % inhibition: 100 mg/kg/day by gastric gavage, versus controls
# Method: The test was performed on male mice weighing 20 g. This protocol lasted 5 days. On day 1, we injected 3 cm^3 of air in the dorsal part via the subcutaneous route. The resultant air pockets were reinflated on days 2, 3 and 4 with 1 cm^3 of air. […] We induced inflammation by injection of 1 ml of a 2% (weight/volume) suspension of carrageenan in PBS buffer into the air pocket. After 4 hours, the pockets were washed with 2 ml of PBS and the exudates were collected. Aliquot parts were diluted to 1:1 with a 0.01% solution of methylene blue in a PBS buffer. We then performed counting of the cells (principally neutrophils) whose accumulation was induced by the inflammation.
# gastric mucosa = experiment: Gastric toxicity, macroscopic and histologic observation of the stomach; format: in vivo; details: 100 mg/kg by gavage, fasted rats, 3 hours
# Method: This test was performed on Sprague Dawley rats (IFFA CREDO, l'Arbresle, France). The rats were in a fasting state the evening before the experiment (but drinking water was available ad libitum). […] Three hours later, the rats were sacrificed by a lethal dose of pentobarbital. The stomach was removed, opened along the greater curvature and rinsed with water. The gastric mucosa was photographed and digitized using a Macintosh G3 computer equipped with a program (NIH, USA) and a video card (Scion, USA). The stomach was fixed with buffered formalin and then processed with the conventional histological techniques for paraffin inclusion. The sections (5 μm) were then stained with hematoxylin-eosin-safranin.
# Two observations were performed: macroscopic (after the stomach was collected, under the microscope) and histologic.
structure (smiles),measurement,setting,value
"Nc1ncnc2c1ncn2[C@@H]1O[C@H](COP(=O)(O)O)[C@@H](O)[C@H]1O [AMP, (5′-O-phosphate)adenosine]",latency time multiplied by (factor),human platelets,circa 1.5
same,maximum response (maximum amplitude of aggregation) to collagen,human platelets,not modified
same,aggregation,rat platelets; ADP 20 μM in the presence of 2.5 mM AMP,40%
same,aggregation,rat platelets; ADP 20 μM in the presence of 5.0 mM AMP,20%
same,effect on aggregation already induced,"rat platelets; ADP 20 μM, AMP 10 mM added 30 seconds later",immediate disaggregation
"O=C(Nc1ncnc2c1ncn2[C@@H]1O[C@H](CO)[C@@H](O)[C@H]1O)c1ccccc1O [Example 3, adenosine N-salicylyl]",Number of leukocytes,male mice,3.80 ± 0.80 millions/ml
same,% inhibition,male mice,60%
same,damage to the gastric wall (macroscopic and histologic),gastric mucosa,did not cause damage to the gastric wall
Nc1ncnc2c1ncn2[C@@H]1O[C@H](CO)[C@@H](O)[C@H]1O [adenosine],aggregation compared with AMP (5 mM),"rat platelets; ADP 20 μM, adenosine 4 mM in place of AMP 5 mM",Comparable results
"CC(=O)Oc1ccccc1C(=O)O [aspirin, acetylsalicylic acid]",Number of leukocytes,male mice,6.40 ± 0.77 millions/ml
same,% inhibition,male mice,33%
O=C([O-])c1ccccc1O.[Na+] [sodium salicylate],inhibition of platelet aggregation,"rat platelets; sodium salicylate 7.5 mM added to plasma, then ADP 20 μM",No significant inhibition

# Reference: patent US20030139368A1, “Antithrombotic and/or anti-inflammatory composition combining purine activity and NSAID activity” (priority 2000, published 2003)
